For data set [1], the target named is Beta-3 adrenergic receptor (Homo sapiens, UniProt P13945). The experiment in a line: DRUGMATRIX: Adrenergic beta3 radioligand binding (ligand: [125I] Cyanopindolol). The class given is cell membranes, HEK293, Membrane. Particulars: Not Active = under 50% inhibition at 10 µM.
In data set [2] the target is C-C chemokine receptor type 5 (Homo sapiens, UniProt P51681). It is filed as cell membranes, Membrane. Particulars: hek293. Note: in other assays of this panel Not Active means under 50% inhibition at 10 µM.
For data set [3], the target named is D(1A) dopamine receptor (Homo sapiens, UniProt P21728). The experiment in a line: DRUGMATRIX: Dopamine D1 radioligand binding (ligand: [3H] SCH-23390). It is filed as cell membranes, CHO, Membrane. Particulars: Not Active = under 50% inhibition at 10 µM.
The target of data set [4] is T1, D(4) dopamine receptor (Homo sapiens, UniProt P21917).
T1 sequence (P21917 whole entry): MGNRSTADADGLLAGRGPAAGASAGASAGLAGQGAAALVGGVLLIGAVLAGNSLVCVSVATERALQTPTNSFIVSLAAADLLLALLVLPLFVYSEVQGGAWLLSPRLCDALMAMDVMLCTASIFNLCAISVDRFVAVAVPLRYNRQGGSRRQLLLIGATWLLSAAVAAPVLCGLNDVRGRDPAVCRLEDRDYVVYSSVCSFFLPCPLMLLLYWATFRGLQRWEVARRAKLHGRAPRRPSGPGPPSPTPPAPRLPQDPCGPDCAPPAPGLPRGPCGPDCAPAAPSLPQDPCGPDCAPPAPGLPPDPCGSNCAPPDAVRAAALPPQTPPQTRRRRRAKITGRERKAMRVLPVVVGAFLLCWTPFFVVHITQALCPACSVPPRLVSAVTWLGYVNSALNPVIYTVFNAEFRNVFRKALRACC
The experiment in a line: DRUGMATRIX: Dopamine D4.2 radioligand binding (ligand: [3H] Spiperone). It is filed as cell membranes, CHO-K1, Membrane. The conditions noted are these: cho-k1; Not Active = under 50% inhibition at 10 µM.

For data set [5], the target named is T2, Leukotriene C4 synthase (Cavia porcellus, UniProt A6XA80).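 Note: enzyme inhibition assay of leukotriene C4 synthase, using LTA4 as the substrate; in other assays of this panel Not Active means under 50% inhibition at 10 µM.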
T2 sequence (A6XA80 whole entry): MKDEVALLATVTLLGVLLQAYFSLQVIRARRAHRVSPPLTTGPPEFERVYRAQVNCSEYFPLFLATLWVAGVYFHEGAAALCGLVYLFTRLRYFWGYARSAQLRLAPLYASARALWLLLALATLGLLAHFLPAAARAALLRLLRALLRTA
It is filed as tissue-based, Lung.

The target in data set [6] is T3, Cytochrome P450 1A2 (Homo sapiens, UniProt P05177). Note: in other assays of this panel Not Active means under 50% inhibition at 10 µM.
T3 sequence (P05177 whole entry): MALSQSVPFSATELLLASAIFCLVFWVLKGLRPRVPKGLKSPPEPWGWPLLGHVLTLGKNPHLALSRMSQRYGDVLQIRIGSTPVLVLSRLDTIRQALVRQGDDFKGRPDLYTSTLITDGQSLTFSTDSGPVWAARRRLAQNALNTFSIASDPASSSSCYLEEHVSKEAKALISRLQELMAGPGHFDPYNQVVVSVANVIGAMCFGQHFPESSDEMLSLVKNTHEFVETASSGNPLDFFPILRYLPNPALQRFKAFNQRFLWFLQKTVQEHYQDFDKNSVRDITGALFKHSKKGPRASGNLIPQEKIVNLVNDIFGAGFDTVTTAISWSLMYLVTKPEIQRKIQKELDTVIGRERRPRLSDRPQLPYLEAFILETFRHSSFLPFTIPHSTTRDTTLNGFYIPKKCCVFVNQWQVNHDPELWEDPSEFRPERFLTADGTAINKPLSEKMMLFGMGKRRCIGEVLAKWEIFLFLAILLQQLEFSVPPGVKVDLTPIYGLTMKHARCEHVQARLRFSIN
Particulars: bti-tn-5b1-4.

Data set [7] has as its target Voltage-gated inwardly rectifying potassium channel KCNH2 (Homo sapiens, UniProt Q12809). The conditions noted are these: hek293. Note: in other assays of this panel Not Active means under 50% inhibition at 10 µM.

Chain of Beta-3 adrenergic receptor (P13945 whole entry): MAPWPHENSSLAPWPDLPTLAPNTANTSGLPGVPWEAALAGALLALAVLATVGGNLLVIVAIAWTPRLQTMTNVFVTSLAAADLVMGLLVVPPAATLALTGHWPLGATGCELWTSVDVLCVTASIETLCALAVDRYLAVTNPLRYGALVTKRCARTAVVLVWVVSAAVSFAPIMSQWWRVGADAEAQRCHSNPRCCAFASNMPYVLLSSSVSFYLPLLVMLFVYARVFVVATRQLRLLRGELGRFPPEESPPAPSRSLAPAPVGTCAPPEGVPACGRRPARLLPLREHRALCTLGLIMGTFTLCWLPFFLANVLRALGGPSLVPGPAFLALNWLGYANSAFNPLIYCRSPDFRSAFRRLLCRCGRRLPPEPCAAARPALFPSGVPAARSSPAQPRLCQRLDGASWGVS
Chain of Voltage-gated inwardly rectifying potassium channel KCNH2 (Q12809 whole entry): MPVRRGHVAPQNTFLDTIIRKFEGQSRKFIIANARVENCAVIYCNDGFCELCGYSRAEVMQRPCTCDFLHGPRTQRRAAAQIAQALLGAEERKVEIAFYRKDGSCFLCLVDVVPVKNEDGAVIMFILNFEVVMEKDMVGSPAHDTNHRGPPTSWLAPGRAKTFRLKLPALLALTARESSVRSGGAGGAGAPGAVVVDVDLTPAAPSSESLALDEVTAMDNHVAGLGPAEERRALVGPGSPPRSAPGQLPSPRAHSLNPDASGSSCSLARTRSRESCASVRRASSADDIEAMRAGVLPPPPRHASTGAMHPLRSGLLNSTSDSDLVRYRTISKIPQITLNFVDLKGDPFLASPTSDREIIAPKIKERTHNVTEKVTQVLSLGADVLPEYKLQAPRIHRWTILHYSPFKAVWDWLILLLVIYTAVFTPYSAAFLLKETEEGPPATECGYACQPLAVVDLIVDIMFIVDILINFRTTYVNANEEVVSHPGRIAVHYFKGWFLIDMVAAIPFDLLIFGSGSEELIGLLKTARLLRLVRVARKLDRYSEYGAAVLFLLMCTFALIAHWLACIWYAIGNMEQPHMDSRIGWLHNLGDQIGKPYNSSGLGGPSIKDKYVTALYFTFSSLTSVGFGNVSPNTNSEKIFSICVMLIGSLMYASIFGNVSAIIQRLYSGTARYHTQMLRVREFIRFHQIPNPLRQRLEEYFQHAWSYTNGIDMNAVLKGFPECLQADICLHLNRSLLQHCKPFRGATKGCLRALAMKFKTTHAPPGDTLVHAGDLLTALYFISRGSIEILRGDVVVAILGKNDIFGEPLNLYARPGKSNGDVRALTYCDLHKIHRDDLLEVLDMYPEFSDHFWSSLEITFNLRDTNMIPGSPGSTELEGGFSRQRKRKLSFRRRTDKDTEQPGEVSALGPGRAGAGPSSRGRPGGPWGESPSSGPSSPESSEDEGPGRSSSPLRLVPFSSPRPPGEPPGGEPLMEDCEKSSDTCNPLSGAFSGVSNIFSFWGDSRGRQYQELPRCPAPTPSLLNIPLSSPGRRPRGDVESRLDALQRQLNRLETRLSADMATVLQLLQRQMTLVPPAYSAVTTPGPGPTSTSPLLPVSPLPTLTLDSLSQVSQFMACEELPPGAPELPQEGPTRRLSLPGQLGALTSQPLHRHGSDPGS
Chain of D(1A) dopamine receptor (P21728 whole entry): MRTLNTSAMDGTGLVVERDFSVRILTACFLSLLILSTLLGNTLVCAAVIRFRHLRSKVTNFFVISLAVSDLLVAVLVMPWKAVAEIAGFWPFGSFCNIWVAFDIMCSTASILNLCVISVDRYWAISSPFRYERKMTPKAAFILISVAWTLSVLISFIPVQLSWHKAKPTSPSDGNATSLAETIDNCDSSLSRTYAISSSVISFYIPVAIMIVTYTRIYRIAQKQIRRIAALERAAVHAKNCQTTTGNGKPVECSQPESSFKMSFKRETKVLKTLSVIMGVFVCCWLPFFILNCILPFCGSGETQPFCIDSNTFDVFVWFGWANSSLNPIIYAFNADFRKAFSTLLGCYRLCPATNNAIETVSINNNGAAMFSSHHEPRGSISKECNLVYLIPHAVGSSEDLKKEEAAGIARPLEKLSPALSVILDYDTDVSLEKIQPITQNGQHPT
Chain of C-C chemokine receptor type 5 (P51681 whole entry): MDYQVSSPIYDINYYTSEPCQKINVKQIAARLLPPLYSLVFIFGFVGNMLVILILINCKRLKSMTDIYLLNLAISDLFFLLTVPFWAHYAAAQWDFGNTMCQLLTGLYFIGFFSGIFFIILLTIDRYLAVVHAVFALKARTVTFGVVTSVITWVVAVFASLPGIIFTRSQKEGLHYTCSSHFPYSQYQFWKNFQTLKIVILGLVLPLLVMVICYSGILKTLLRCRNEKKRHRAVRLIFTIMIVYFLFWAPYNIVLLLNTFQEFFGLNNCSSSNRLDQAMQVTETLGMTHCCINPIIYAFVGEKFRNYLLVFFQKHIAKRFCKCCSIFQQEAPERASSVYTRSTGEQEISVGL

By IC50 is commonly meant the point on the concentration scale where inhibition reaches its midpoint. As usually defined, the Ki is a dissociation constant, usually derived from enzyme kinetics or from competition with a known ligand. In the case of `C[C@](N)(Cc1ccc(O)c(O)c1)C(=O)O` [METHYLDOPA], the IC50 entry in data set [1] (hek293), in data set [2], in data set [3] (cho), in data set [4], in data set [5] and in data set [6] was “Not Active” each time. For the same compound, the IC50 result in data set [7] was “Not Active”. Further, the Ki result in data set [6] and in data set [7] was “Not Active” in each case.
On to LEAD (II) ACETATE, for which the IC50 entry in data set [1] (hek293), in data set [2], in data set [3] (cho), in data set [4], in data set [5] and in data set [6] was “Not Active” each time. In data set [7], the IC50 entry is given as “Not Active”. Besides, the Ki entry in data set [1] (hek293), in data set [2], in data set [3] (cho), in data set [4], in data set [5] and in data set [6] was “Not Active” in each case. Moreover, in data set [7], the inhibition constant Ki result is given as “Not Active”.
As to `CC(O)CO` (configuration not stated) [PROPYLENE GLYCOL], the half-maximal inhibitory concentration (IC50) result in data set [1] (hek293), in data set [2], in data set [3] (cho), in data set [4], in data set [5] and in data set [6] was “Not Active” in each case. The 50% inhibitory concentration (IC50) entry in data set [7] is listed as “Not Active”. The Ki result in data set [6] and in data set [7] was “Not Active” throughout.
For `CCCC1O[C@@H]2C[C@H]3[C@@H]4CCC5=CC(=O)C=C[C@]5(C)[C@H]4[C@@H](O)C[C@]3(C)[C@]2(C(=O)CO)O1` (some centres not stated) [BUDESONIDE], the half-inhibitory concentration (IC50) result in data set [1] (hek293), in data set [2], in data set [3] (cho), in data set [4], in data set [5] and in data set [6] was “Not Active” throughout. Further, the IC50 result in data set [7] was “Not Active”. Moreover, the inhibitory constant (Ki) entry in data set [6] and in data set [7] was “Not Active” each time.
Consider `CC1Cc2ccccc2N1NC(=O)c1ccc(Cl)c(S(N)(=O)=O)c1` (configuration not stated) [INDAPAMIDE], for which the IC50 result in data set [1] (hek293), in data set [2], in data set [3] (cho), in data set [4], in data set [5] and in data set [6] was “Not Active” throughout. The half-maximal inhibitory concentration (IC50) result in data set [7] is “Not Active”. The Ki entry in data set [6] and in data set [7] was “Not Active” each time.
With `CCC1(c2ccc(N)cc2)CCC(=O)NC1=O` (configuration not stated) [AMINOGLUTETHIMIDE], the half-inhibitory concentration (IC50) entry in data set [1] (hek293), in data set [2], in data set [3] (cho), in data set [4], in data set [5] and in data set [6] was “Not Active” throughout. For the same compound, the IC50 entry in data set [7] is on record as “Not Active”. The Ki entry in data set [6] and in data set [7] was “Not Active” throughout.
For `Cc1ccccc1N1C(=O)c2cc(S(N)(=O)=O)c(Cl)cc2NC1C` (configuration not stated) [METOLAZONE], the half-inhibitory concentration (IC50) result in data set [1] (hek293), in data set [2], in data set [3] (cho), in data set [4], in data set [5] and in data set [6] was “Not Active” in each case. The IC50 entry in data set [7] was “Not Active”. For the same compound, the Ki result in data set [6] and in data set [7] was “Not Active” each time.
As to `C1CCC(C(CC2CCCCN2)C2CCCCC2)CC1` (configuration not stated) [PERHEXILINE], the concentration for half-maximal inhibition (IC50) result in data set [1] (hek293), in data set [2], in data set [3] (cho), in data set [4], in data set [5] and in data set [6] was “Not Active” in each case. Moreover, the IC50 result in data set [7] is on record as “Not Active”. Besides, the Ki result in data set [6] and in data set [7] was “Not Active” throughout.
For the compound `CC(C)CN(C[C@@H](O)[C@H](Cc1ccccc1)NC(=O)O[C@H]1CCOC1)S(=O)(=O)c1ccc(N)cc1`, the IC50 result in data set [1] (hek293), in data set [2], in data set [3] (cho), in data set [4], in data set [5] and in data set [6] was “Not Active” each time. Moreover, the half-maximal inhibitory concentration (IC50) result in data set [7] was “Not Active”. Besides, the Ki entry in data set [6] and in data set [7] was “Not Active” in each case.
Take `O=c1[nH]c(=O)n([C@H]2C[C@H](O)[C@@H](CO)O2)cc1I` [IDOXURIDINE]: the IC50 result in data set [1] (hek293), in data set [2], in data set [3] (cho), in data set [4], in data set [5] and in data set [6] was “Not Active” each time. In addition, the IC50 entry in data set [7] was “Not Active”. For the same compound, the inhibition constant (Ki) entry in data set [6] and in data set [7] was “Not Active” each time.
For the compound `C[C@H](CCC(=O)O)[C@H]1CC[C@H]2[C@@H]3[C@H](O)C[C@@H]4C[C@H](O)CC[C@]4(C)[C@H]3C[C@H](O)[C@]12C` [CHOLIC ACID], the 50% inhibitory concentration (IC50) result in data set [1] (hek293), in data set [2], in data set [3] (cho), in data set [4], in data set [5] and in data set [6] was “Not Active” each time. Also, the 50% inhibitory concentration (IC50) result in data set [7] is “Not Active”. The Ki entry in data set [6] and in data set [7] was “Not Active” in each case.
As for `CC(=O)O[C@@]12CO[C@@H]1C[C@H](O)[C@@]1(C)C(=O)[C@H](O)C3=C(C)[C@@H](OC(=O)[C@H](O)[C@@H](NC(=O)OC(C)(C)C)c4ccccc4)C[C@@](O)([C@@H](OC(=O)c4ccccc4)[C@H]21)C3(C)C.O.O.O` [DOCETAXEL], the IC50 entry in data set [1] (hek293), in data set [2], in data set [3] (cho), in data set [4], in data set [5] and in data set [6] was “Not Active” throughout. Besides, the IC50 entry in data set [7] is given as “Not Active”. Moreover, the Ki entry in data set [6] and in data set [7] was “Not Active” in each case.
With `C[C@H]1c2cccc(O)c2C(=O)C2=C(O)[C@]3(O)C(=O)C(C(N)=O)=C(O)[C@@H](N(C)C)[C@@H]3[C@@H](O)[C@@H]21.O` [DOXYCYCLINE], the IC50 entry in data set [1] (hek293), in data set [2], in data set [3] (cho), in data set [4], in data set [5] and in data set [6] was “Not Active” each time. The IC50 result in data set [7] is recorded as “Not Active”. Moreover, the inhibition constant (Ki) result in data set [6] and in data set [7] was “Not Active” throughout.
Take CADMIUM ACETATE: the half-maximal inhibitory concentration (IC50) entry in data set [1] (hek293), in data set [2], in data set [3] (cho), in data set [4], in data set [5] and in data set [6] was “Not Active” each time. In data set [7], the IC50 entry is “Not Active”. Moreover, the Ki entry in data set [1] (hek293), in data set [2], in data set [3] (cho), in data set [4], in data set [5] and in data set [6] was “Not Active” in each case. Also, in data set [7], the inhibition constant (Ki) entry is “Not Active”.
As to `CC(C)[C@@]1(NC(=O)[C@@H]2C[C@@H]3c4cccc5[nH]cc(c45)C[C@H]3N(C)C2)O[C@@]2(O)[C@@H]3CCCN3C(=O)[C@H](Cc3ccccc3)N2C1=O.CS(=O)(=O)O` [DIHYDROERGOCRISTINE MESYLATE], the 50% inhibitory concentration (IC50) in data set [1] (read-out: IC50) is 3310 nM; in data set [2], “Not Active”; in data set [3] (read-out: IC50), 1180 nM; in data set [4], “Not Active”; in data set [5], “Not Active”; in data set [6] it was “Not Active”. Moreover, the concentration for half-maximal inhibition (IC50) result in data set [7] is reported as “Not Active”. Besides, the Ki is 2480 nM in data set [1] (read-out: Ki), 589 nM in data set [3] (read-out: Ki), “Not Active” in data set [6] and “Not Active” in data set [7].
